# In patent publication US7741354B2, “Inhibitors of glutaminyl cyclase” (Probiodrug AG, priority 2006, dated 2010):
# Target: hQC (Homo sapiens, UniProt Q16769)
# Assay: Fluorometric (fluorescent) assay of hQC inhibition, IC50
# Assay type: biochemical
# Conditions: hQC inhibition; read-out: IC50
# Summary of the method: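 QC activity followed at 30° C via pyroglutamyl aminopeptidase-coupled release of fluorophore, using either H-Gln-βNA (0.2 mM; ex/em 320/410 nm; 0.2 M Tris/HCl pH 8.0, 20 mM EDTA) or H-Gln-AMC (ex/em 380/460 nm; 0.05 M Tris/HCl pH 8.0, 5 mM EDTA).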
# Chain of hQC (Q16769 29-361): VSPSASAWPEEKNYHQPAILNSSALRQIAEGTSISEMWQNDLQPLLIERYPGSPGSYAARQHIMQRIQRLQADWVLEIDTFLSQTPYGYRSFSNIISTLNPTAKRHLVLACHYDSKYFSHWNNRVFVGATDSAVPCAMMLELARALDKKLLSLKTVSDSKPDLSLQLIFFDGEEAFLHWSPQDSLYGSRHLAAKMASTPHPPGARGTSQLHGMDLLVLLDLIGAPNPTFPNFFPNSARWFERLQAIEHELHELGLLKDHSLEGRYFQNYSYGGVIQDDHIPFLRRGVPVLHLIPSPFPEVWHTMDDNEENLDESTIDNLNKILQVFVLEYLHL
row,IC50 [µM],SMILES
1,5.8,CCOC(=O)C1CCCCC1n1nnnc1C(Nc1ccc2[nH]cnc2c1)c1ccc2c(c1)OCO2 (centres unmarked) [compound 162]
2,8.5,"COc1ccc(C(Nc2ccc3[nH]cnc3c2)c2nnnn2CC2CCCO2)cc1F (centres unmarked) [compound 163, (1H-Benzoimidazol-5-yl)-{(3-fluoro-4-methoxy-phenyl)-[1-(tetrahydro-furan-2-ylmethyl)-1H-tetrazol-5-yl]-methyl}-amine]"
3,4.9,"Cc1ccc(C(Nc2ccc3[nH]cnc3c2)c2nnnn2CCCN2CCCC2=O)cc1C (centres unmarked) [compound 164, 1-(3-{5-[(1H-Benzoimidazol-5-ylamino)-(3,4-dimethyl-phenyl)-methyl]-tetrazol-1-yl}-propyl)-pyrrolidin-2-one]"
4,5.8,"Cc1cc(C(Nc2ccc3[nH]cnc3c2)c2nnnn2CC2COC(C)(C)O2)cc(C)c1O (centres unmarked) [compound 165, 4-{(1H-Benzoimidazol-5-ylamino)-[1-(2,2-dimethyl-[1,3]dioxolan-4-ylmethyl)-1H-tetrazol-5-yl]-methyl}-2,6-dimethyl-phenol]"
5,0.4,Clc1ccc(Cn2nnnc2C(Nc2ccc3[nH]cnc3c2)c2ccc3nsnc3c2)cc1 (centres unmarked) [compound 166]
6,8.5,"C1=CCC(C(Nc2ccc3[nH]cnc3c2)c2nnnn2CCc2cccs2)CC1 (centres unmarked) [compound 167, (1H-Benzoimidazol-5-yl)-{cyclohex-3-enyl-[1-(2-thiophen-2-yl-ethyl)-1H-tetrazol-5-yl]-methyl}-amine]"
7,5.8,CCOC(=O)C1CCCCC1n1nnnc1C(Nc1ccc2[nH]cnc2c1)c1ccc(CC)cc1 (centres unmarked) [compound 168]
8,7.6,"CCOC(=O)C1CCCCC1n1nnnc1C(Nc1ccc2[nH]cnc2c1)c1cc(Cl)ccc1O (centres unmarked) [compound 169, 2-{5-[(1H-Benzoimidazol-5-ylamino)-(5-chloro-2-hydroxy-phenyl)-methyl]-tetrazol-1-yl}-cyclohexacar-boxylic acid ethyl ester]"
9,4.9,"Brc1cc(Br)cc(C(Nc2ccc3[nH]cnc3c2)c2nnnn2CC2CCCO2)c1 (centres unmarked) [compound 170, (1H-Benzoimidazol-5-yl)-{(3,5-dibromo-phenyl)-[1-(tetrahydro-furan-2-ylmethyl)-1H-tetrazol-5-yl]-methyl}-amine]"
10,8.5,"CC1(C)OCC(Cn2nnnc2C(Nc2ccc3[nH]cnc3c2)c2ccc(Cl)c([N+](=O)[O-])c2)O1 (centres unmarked) [compound 171, (1H-Benzoimidazol-5-yl)-{(4-chloro-3-nitro-phenyl)-[1-(2,2-dimethyl-[1,3]dioxolan-4-ylmethyl)-1H-tetrazol-5-yl]-methyl}-amine]"
11,4,"COc1ccc(C(Nc2ccc3[nH]cnc3c2)c2nnnn2CC(=O)OC(C)(C)C)cc1 (centres unmarked) [compound 172, {5-[(1H-Benzoimidazol-5-ylamino)-(4-methoxy-phenyl)-methyl]-tetrazol-1-yl}-acetic acid tert-butyl ester]"
12,8.5,"C/C=C/C=C/C(Nc1ccc2[nH]cnc2c1)c1nnnn1Cc1cccnc1 (centres unmarked) [compound 173, (1H-Benzoimidazol-5-yl)-[(2E,4E)-1-(1-pyridin-3-ylmethyl-1H-tetrazol-5-yl)-hexa-2,4-dienyl]-amine]"
13,8.5,"C/C=C/C=C/C(Nc1ccc2[nH]cnc2c1)c1nnnn1CC1CCCO1 (centres unmarked) [compound 174, (1H-Benzoimidazol-5-yl)-{(2E,4E)-1-[1-(tetrahydro-furan-2-ylmethyl)-1H-tetrazol-5-yl]-hexa-2,4-dienyl}-amine]"
14,3.1,"Brc1cc(Br)cc(C(Nc2ccc3[nH]cnc3c2)c2nnnn2C2CCCCC2)c1 (centres unmarked) [compound 175, (1H-Benzoimidazol-5-yl)-[(1-cyclohexyl-1H-tetrazol-5-yl)-(3,5-dibromo-phenyl)-methyl]-amine]"
15,5.8,"O=C1CCCN1CCCn1nnnc1C(Nc1ccc2[nH]cnc2c1)c1cc(Br)cc(Br)c1 (centres unmarked) [compound 176, 1-(3-{5-[(1H-Benzoimidazol-5-ylamino)-(3,5-dibromo-phenyl)-methyl]-tetrazol-1-yl}-propyl)-pyrrolidin-2-one]"
16,2.2,"Brc1cc(Br)cc(C(Nc2ccc3[nH]cnc3c2)c2nnnn2CCc2cccs2)c1 (centres unmarked) [compound 177, (1H-Benzoimidazol-5-yl)-{(3,5-dibromo-phenyl)-[1-(2-thiophen-2-yl-ethyl)-1H-tetrazol-5-yl]-methyl}-amine]"
17,5.8,"Brc1cc(Br)cc(C(Nc2ccc3[nH]cnc3c2)c2nnnn2-c2ccc(Oc3ccccc3)cc2)c1 (centres unmarked) [compound 178, (1H-Benzoimidazol-5-yl)-{(3,5-dibromo-phenyl)-[1-(4-phenoxy-phenyl)-1H-tetrazol-5-yl]-methyl}-amine]"
18,4,"Brc1cc(Br)cc(C(Nc2ccc3[nH]cnc3c2)c2nnnn2-c2ccc3c(c2)OCCO3)c1 (centres unmarked) [compound 179, (1H-Benzoimidazol-5-yl)-{(3,5-dibromo-phenyl)-[1-(2,3-dihydro-benzo[1,4]dioxin-6-yl)-1H-tetrazol-5-yl]-methyl}-amine]"
19,4.9,"Brc1cc(Br)cc(C(Nc2ccc3[nH]cnc3c2)c2nnnn2-c2ccccc2OCc2ccccc2)c1 (centres unmarked) [compound 180, (1H-Benzoimidazol-5-yl)-[[1-(2-benzyloxy-phenyl)-1H-tetrazol-5-yl]-(3,5-dibromo-phenyl)-methyl]-amine]"
20,0.4,c1csc(CCn2nnnc2C(Nc2ccc3[nH]cnc3c2)c2ccc3nsnc3c2)c1 (centres unmarked) [compound 181]
21,5.8,"C1=COC(C(Nc2ccc3nc[nH]c3c2)c2nnnn2CCc2cccs2)CC1 (centres unmarked) [compound 182, (1H-Benzoimidazol-5-yl)-{(3,4-dihydro-2H-pyran-2-yl)-[1-(2-thiophen-2-yl-ethyl)-1H-tetrazol-5-yl]-methyl}-amine]"
22,8.5,CCOC(=O)C1CCCCC1n1nnnc1C(Nc1ccc2[nH]cnc2c1)c1ccccc1OC (centres unmarked) [compound 183]
23,5.8,CCOC(=O)C1CCCCC1n1nnnc1C(Nc1ccc2[nH]cnc2c1)c1ccc(OC)cc1 (centres unmarked) [compound 184]
24,6.7,c1cncc(Cn2nnnc2C(Nc2ccc3[nH]cnc3c2)c2ccc3nsnc3c2)c1 (centres unmarked) [compound 185]
25,5.8,"Brc1cc(Br)cc(C(Nc2ccc3[nH]cnc3c2)c2nnnn2C(c2ccccc2)c2ccccc2)c1 (centres unmarked) [compound 186, [(1-Benzhydryl-1H-tetrazol-5-yl)-(3,5-dibromo-phenyl)-methyl]-(1H-benzoimidazol-5-yl)-amine]"
26,1.3,"O=C(Cn1nnnc1C(Nc1ccc2[nH]cnc2c1)c1cc(Br)cc(Br)c1)NCCc1c[nH]c2ccccc12 (centres unmarked) [compound 187, 2-{5-[(1H-Benzoimidazol-5-ylamino)-(3,5-dibromo-phenyl)-methyl]-tetrazol-1-yl}-N-[2-(1H-indol-3-yl)-ethyl]-acetamide]"
27,4,"Brc1cc(Br)cc(C(Nc2ccc3[nH]cnc3c2)c2nnnn2CCC(c2ccccc2)c2ccccc2)c1 (centres unmarked) [compound 188, (1H-Benzoimidazol-5-yl)-{(3,5-dibromo-phenyl)-[1-(3,3-diphenyl-propyl)-1H-tetrazol-5-yl]-methyl}-amine]"
28,3.1,"Brc1cc(Br)cc(C(Nc2ccc3[nH]cnc3c2)c2nnnn2CCCCc2ccccc2)c1 (centres unmarked) [compound 189, (1H-Benzoimidazol-5-yl)-{(3,5-dibromo-phenyl)-[1-(4-phenyl-butyl)-1H-tetrazol-5-yl]-methyl}-amine]"
29,1.3,"Brc1cc(Br)cc(C(Nc2ccc3[nH]cnc3c2)c2nnnn2Cc2ccccc2)c1 (centres unmarked) [compound 190, (1H-Benzoimidazol-5-yl)-[(1-benzyl-1H-tetrazol-5-yl)-(3,5-dibromo-phenyl)-methyl]-amine]"
